The results in this text go back to ChEMBL document CHEMBL3813694, “Combined dual effect of modulation of human neutrophils' oxidative burst and inhibition of colon cancer cells proliferation by hydroxycinnamic acid derivatives” (Bioorg Med Chem, 2016).

Active and inactive are the calls of the source. No cut-off for these calls is given here.

In series [1] the test system is WiDr. The series is described as follows: Cytotoxicity against human WiDr cells assessed as reduction in cell proliferation after 24 hrs by sulforhodamine B assay. The class given is functional, cell-based.
Series [2] is described as follows: Cytotoxicity against human neutrophils at 200 uM after 1 hr by trypan blue exclusion assay. It is filed as cell-based. The conditions noted are these: neutrophil.
In series [3] the test system is C2BBe1. The series is described as follows: Cytotoxicity against human C2BBe1 cells assessed as reduction in cell proliferation up to 200 uM by sulforhodamine B assay. Conditions: TDE = time-dependent effect. The class given is functional, cell-based.
Series [4] has as its system C2BBe1. The series is described as follows: Cytotoxicity against human C2BBe1 cells assessed as reduction in cell proliferation after 48 hrs by sulforhodamine B assay. The class given is functional, cell-based. Conditions: C2BBe1, 48 h.
The subject of series [5] is C2BBe1. The experiment in a line: Cytotoxicity against human C2BBe1 cells assessed as reduction in cell proliferation after 24 hrs by sulforhodamine B assay. The class given is functional, cell-based. Conditions: C2BBe1, 24 h.
Series [6] deals with WiDr. The series is described as follows: Cytotoxicity against human WiDr cells assessed as reduction in cell proliferation after 48 hrs by sulforhodamine B assay. The class given is functional, cell-based.
Series [7] relates to Neutrophil. The series is described as follows: Inhibition of phorbol myristate acetate-induced human neutrophils oxidative burst assessed as reduction in luminol oxidation preincubated for 5 mins followed by PMA addition measured after 15 mins by chemiluminescence assay. It is filed as functional, cell-based.
For series [8], the system named is C2BBe1. The series is described as follows: Cytotoxicity against human C2BBe1 cells assessed as reduction in cell proliferation after 96 hrs by sulforhodamine B assay. It is filed as functional, cell-based. The conditions noted are these: C2BBe1, 96 h.
For series [9], the system named is WiDr. The experiment in a line: Cytotoxicity against human WiDr cells assessed as reduction in cell proliferation after 72 hrs by sulforhodamine B assay. The class given is functional, cell-based.
Series [10] has as its system C2BBe1. The experiment in a line: Cytotoxicity against human C2BBe1 cells assessed as reduction in cell proliferation after 72 hrs by sulforhodamine B assay. It is filed as functional, cell-based. Conditions: C2BBe1, 72 h.
Series [11] relates to WiDr. The series is described as follows: Cytotoxicity against human WiDr cells assessed as reduction in cell proliferation after 96 hrs by sulforhodamine B assay. It is filed as functional, cell-based.
Series [12] concerns Neutrophil. The experiment in a line: Inhibition of phorbol myristate acetate-induced human neutrophils oxidative burst assessed as reduction in luminol oxidation up to 200 uM preincubated for 5 mins followed by PMA addition measured after 15 mins by chemiluminescence assay. It is filed as functional.
For series [13], the system named is Neutrophil. The series is described as follows: Inhibition of phorbol myristate acetate-induced superoxide radical generation in human neutrophils at 100 uM preincubated for 5 mins followed by PMA addition by lucigenin chemiluminescence assay. The class given is functional.
Series [14] relates to WiDr. The experiment in a line: Induction of hydrogen peroxide production in human WiDr cells at 35 to 50 uM after 48 hrs by DCFH2-DA probe based flow cytometry. It is filed as functional, cell-based.
In series [15] the test system is WiDr. The experiment in a line: Induction of superoxide anion radical production in human WiDr cells at 50 uM after 48 hrs by dihydroethidium probe based flow cytometry relative to control. The class given is functional.
Series [16] has as its system WiDr. The series is described as follows: Cytotoxicity against human WiDr cells assessed as reduction in cell viability at 50 uM after 48 hrs by annexin V/propidium iodide dual staining based flow cytometry relative to control. It is filed as functional.
Series [17] has as its system C2BBe1. The experiment in a line: Cytotoxicity against human C2BBe1 cells assessed as reduction in cell viability at 22 uM after 48 hrs by annexin V/propidium iodide dual staining based flow cytometry relative to control. The class given is functional.
The test system of series [18] is C2BBe1. The experiment in a line: Induction of apoptosis in human C2BBe1 cells assessed as early apoptotic cells at 50 uM after 48 hrs by annexin V/propidium iodide dual staining based flow cytometry. It is filed as functional, cell-based.
The subject of series [19] is C2BBe1. The series is described as follows: Induction of glutathione production in human C2BBe1 cells at 50 uM after 48 hrs by mercury orange dye based flow cytometry relative to control. The class given is functional.
Series [20] concerns WiDr. The experiment in a line: Induction of apoptosis in human WiDr cells assessed as early apoptotic cells at 35 to 50 uM after 48 hrs by annexin V/propidium iodide dual staining based flow cytometry. It is filed as functional, cell-based.
In series [21] the test system is WiDr. The series is described as follows: Induction of superoxide anion radical production in human WiDr cells after 48 hrs by dihydroethidium probe based flow cytometry. The class given is functional, cell-based.
For series [22], the system named is WiDr. The series is described as follows: Induction of apoptosis in human WiDr cells assessed as decrease in mitochondrial membrane potential at 50 uM after 48 hrs by JC-1 staining based flow cytometry relative to control. It is filed as functional.
For series [23], the system named is C2BBe1. The experiment in a line: Cytotoxicity against human C2BBe1 cells assessed as reduction in cell viability at 50 uM after 48 hrs by annexin V/propidium iodide dual staining based flow cytometry relative to control. It is filed as functional.
Series [24] deals with WiDr. The series is described as follows: Cytotoxicity against human WiDr cells assessed as reduction in cell viability at 35 uM after 48 hrs by annexin V/propidium iodide dual staining based flow cytometry relative to control. It is filed as functional.
Series [25] has as its system WiDr. The experiment in a line: Cell cycle arrest in human WiDr cells assessed as accumulation at pre-G1 phase at 50 uM after 48 hrs by propidium iodide/RNase staining based flow cytometry. The class given is functional.
Series [26] has as its system C2BBe1. The series is described as follows: Cell cycle arrest in human C2BBe1 cells assessed as accumulation at G2/M phase at 50 uM after 48 hrs by propidium iodide/RNase staining based flow cytometry relative to control. It is filed as functional.
In series [27] the test system is C2BBe1. The series is described as follows: Induction of superoxide anion radical production in human C2BBe1 cells after 48 hrs by dihydroethidium probe based flow cytometry. It is filed as functional, cell-based.
For series [28], the system named is WiDr. The experiment in a line: Cell cycle arrest in human WiDr cells assessed as accumulation at S phase at 50 uM after 48 hrs by propidium iodide/RNase staining based flow cytometry relative to control. The class given is functional.

As for `O=C(O)/C=C/c1cc(O)c(O)c(O)c1`, the IC50 was above 200 µM in series [1]; 87.9 µM in series [4]; 131 µM in series [5]; above 200 µM in [6]; 19 µM in series [7]; 39.1 µM in [8]. Moreover, the IC50 in series [9] is 114 µM; in series [10], 58.9 µM; in [11], 136 µM. The Activity in [2] was 98%; in series [3] it was “tde”.

For the compound `CCCCCCNC(=O)/C=C/c1cc(O)c(O)c(O)c1`, the IC50 was 71.4 µM in [1]; 115 µM in series [4]; 115 µM in series [5]; 82.4 µM in series [6]; 36 µM in series [7]; 50.9 µM in series [8]. Further, the IC50 in series [9] was determined as 37.7 µM; in [10], 99.8 µM; in series [11] it was 31.7 µM. Besides, the Activity in series [2] was 98%; in [3] it was “tde”.

On to `O=C(O)/C=C/c1ccc(O)c(O)c1` [CAFFEIC ACID], for which, in series [12], the “inhibition (INH)” value was found to be 44%. This compound came in with an Activity in [2] of 98%. For the same compound, the inhibition at 100 µM in series [13] was found to be 84%.

Turning to `CCCCCCNC(=O)/C=C/c1ccc(O)c(O)c1` [CAFFEOYLHEXYLAMIDE], the result in series [14], in series [18], in [20] and in [25] was Active. For the same compound, the IC50 worked out at 56.1 µM in series [1]; 22 µM in [4]; 37.3 µM in series [5]; 34.6 µM in series [6]; 6.6 µM in [7]; 22.6 µM in [8]. Further, the IC50 was 35.5 µM in [9], 23.4 µM in series [10] and 30.8 µM in series [11]. Besides, the Activity in [2] is 98%; in [16], 43.9%; in series [17] it was 11.4%; in [21] it was “Dose-dependent effect”; in series [23], 14.7%; in [24], 32.8%. Further, the Activity was 8.8% in series [26], “Dose-dependent effect” in series [27] and 9.3% in series [28]. Also, the “fold change (FC)” value is 2.63 in series [15], 1.47 in series [19] and 1.27 in series [22].

As for `COc1cc(/C=C/C(=O)O)ccc1O` [FERULATE], the IC50 in series [1] was above 200 µM; in series [4], above 200 µM; in series [5] it was above 200 µM; in series [6], above 200 µM; in [7], 200 µM; in series [8], above 200 µM. Further, the IC50 in series [9], in [10] and in series [11] was above 200 µM each time. In addition, in [2], the Activity was 98%.

As for `CCCCCCNC(=O)/C=C/c1ccc(O)c(OC)c1` [FERULOYLHEXYLAMIDE], the IC50 in [1] worked out at 84.9 µM; in series [4], 123 µM; in series [5] it was 132 µM; in series [6] it was 91 µM; in series [7], 14 µM; in [8] it was 60.6 µM. Further, the IC50 came out at 77.4 µM in series [9], 89.5 µM in series [10] and 83.3 µM in series [11]. This compound also yielded an Activity in [2] of 98%.
